# Measurements taken from patent EP4702986A1, “POLYPEPTIDE AND USE THEREOF” (Biocells (Beijing) Biotech Co., Ltd., priority 2023, dated 2024).
# Read-outs that look alike come from different tables or passages of the source. Numbered stars: 1 amine (or outer) side, 2 acyl side, 3 side chain; on linkers, the order of the positions; unused ones are H or OH. Side chains are listed from the residue outwards. Ends that are not written are not given here. Peptide text beside a SMILES is read from it. * marks the point of attachment. X1 = C[C@H](NC(=O)[C@@H]1CCCN1C(=O)[C@@H](N)CSC1CC(=O)N(CCC(=O)*)C1=O)C(=O)N[C@@H](CCCCN)C(=O)O; C18 diacid = O=C(O)CCCCCCCCCCCCCCCCC(=O)*; γGlu = O=C(O)[C@H](CCC(=O)[*:2])N[*:1]; Fumaroyl = O=C(O)/C=C/C(=O)*; Suc = O=C(CCC(=O)[*:2])[*:1]; Lauroyl = CCCCCCCCCCCC(=O)*; AEEA = NCCOCCOCC(=O)O
# What was measured:
# human ETA receptor = target: T1, human ETA receptor (Homo sapiens, UniProt P25101); experiment: Selectivity of polypeptides on human ETA receptor (IP-One Gq kit, % of positive control ET1); assay type: cell-based
# T1 construct: expressed in transfected cells; host or cells: 293T-17 cells, transient transfection
# T1 sequence (P25101 21-427): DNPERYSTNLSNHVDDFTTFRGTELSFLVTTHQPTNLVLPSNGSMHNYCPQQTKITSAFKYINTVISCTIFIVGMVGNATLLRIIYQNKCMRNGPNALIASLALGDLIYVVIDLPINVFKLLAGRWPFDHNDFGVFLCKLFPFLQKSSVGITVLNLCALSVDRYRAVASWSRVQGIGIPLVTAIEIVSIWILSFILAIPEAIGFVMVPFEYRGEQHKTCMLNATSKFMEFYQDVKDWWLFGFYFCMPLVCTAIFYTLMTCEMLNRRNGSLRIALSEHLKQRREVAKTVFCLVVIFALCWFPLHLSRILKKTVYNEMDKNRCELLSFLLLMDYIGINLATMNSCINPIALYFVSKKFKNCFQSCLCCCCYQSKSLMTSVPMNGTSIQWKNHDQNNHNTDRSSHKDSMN
# Method in brief: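 293T-17 cells transiently transfected with human ETA receptor (48 h), 30,000 cells/well exposed to polypeptides for 1 h at 37°C; IP1 accumulation by HTRF (665/620 nm ratio). Activity given as % of ET1 at the same concentration after PBS-control subtraction.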
# [1] = Determination of half-lives of polypeptides (plasma, LC-MS); conditions: for half-life: C57 BL/6, mouse, plasma, iv; for AUClast 0-30 min: C57 BL/6 mice, i.v., dosage per compound 0.48, 0.96 or 1 mpk
# [2] = read-out: hETAR agonist activity, percentage of activity relative to ET1
molecule,measurement,setting,value
CCCCCCCCCCCC(=O)N[C@@H](CCC(=O)NCCOCCOCC(=O)NCCCC[C@H](NC(=O)[C@H](Cc1c[nH]cn1)NC(=O)[C@H](C)NC(=O)[C@H](Cc1ccccc1)NC(=O)[C@H](Cc1ccc(O)cc1)NC(=O)[C@@H](NC(=O)[C@H](C)NC(=O)[C@H](CCC(=O)O)NC(=O)[C@H](CCC(=O)O)NC(=O)[C@H](CC(=O)O)NC(=O)/C=C/C(=O)O)C(C)C)C(=O)N[C@@H](CC(=O)O)C(=O)N[C@H](C(=O)N[C@H](C(=O)N[C@@H](Cc1c[nH]c2ccccc12)C(=O)O)[C@@H](C)CC)C(C)C)C(=O)O [BX229-Na] (Fumaroyl-DEEAVYFAHK([AEEA-γGlu-Lauroyl])DVIW-OH),activation at 100 µM,"human ETA receptor; @100µM, read-out: hETAR agonist activity, percentage of activity relative to ET1",0.68%
CC[C@H](C)[C@H](NC(=O)[C@H](CC(=O)O)NC(=O)[C@H](CCCCNC(=O)COCCOCCNC(=O)COCCOCCNC(=O)CC[C@H](NC(=O)CCCCCCCCCCCCCCCCC(=O)O)C(=O)O)NC(=O)[C@H](Cc1c[nH]cn1)NC(=O)[C@H](C)NC(=O)[C@H](Cc1ccccc1)NC(=O)[C@H](Cc1ccc(O)cc1)NC(=O)[C@@H](NC(=O)[C@H](C)NC(=O)[C@H](CCC(=O)O)NC(=O)[C@H](CCC(=O)O)NC(=O)[C@H](CC(=O)O)NC(=O)/C=C/C(=O)O)C(C)C)C(=O)N[C@H](C(=O)N[C@@H](Cc1c[nH]c2ccccc12)C(=O)O)[C@@H](C)CC [BX-34] (Fumaroyl-DEEAVYFAHK([AEEA-AEEA-γGlu-C18 diacid])DIIW-OH),half-life,[1],63 min
same,AUClast 0-30 min,[1],7736 ng·h/mL
same,activation at 0.01 µM,human ETA receptor; [2],-23.5%
same,activation at 0.1 µM,human ETA receptor; [2],-11%
CC[C@H](C)[C@H](NC(=O)[C@H](CC(=O)O)NC(=O)[C@H](CCCCNC(=O)COCCOCCNC(=O)CCN1C(=O)CC(SC[C@H](N)C(=O)N2CCC[C@H]2C(=O)N[C@@H](C)C(=O)N[C@@H](CCCCN)C(=O)O)C1=O)NC(=O)[C@H](Cc1c[nH]cn1)NC(=O)[C@H](C)NC(=O)[C@H](Cc1ccccc1)NC(=O)[C@H](Cc1ccc(O)cc1)NC(=O)[C@@H](NC(=O)[C@H](C)NC(=O)[C@H](CCC(=O)O)NC(=O)[C@H](CCC(=O)O)NC(=O)[C@H](CC(=O)O)NC(=O)/C=C/C(=O)O)C(C)C)C(=O)N[C@H](C(=O)N[C@@H](Cc1c[nH]c2ccccc12)C(=O)O)[C@@H](C)CC (stereo partly shown) [BX-95] (Fumaroyl-DEEAVYFAHK([AEEA-X1])DIIW-OH),activation at 10 µM,human ETA receptor; [2],-9.81%
same,activation at 100 µM,human ETA receptor; [2],-7.46%
CCCCCCCCCCCC(=O)N[C@@H](CCC(=O)NCCOCCOCC(=O)NCCCC[C@H](NC(=O)[C@H](Cc1c[nH]cn1)NC(=O)[C@H](C)NC(=O)[C@H](Cc1ccccc1)NC(=O)[C@H](Cc1ccc(O)cc1)NC(=O)[C@@H](NC(=O)[C@H](C)NC(=O)[C@H](CCC(=O)O)NC(=O)[C@H](CCC(=O)O)NC(=O)[C@H](CC(=O)O)NC(=O)/C=C/C(=O)O)C(C)C)C(=O)N[C@@H](CC(=O)O)C(=O)N[C@H](C(=O)N[C@H](C(=O)N[C@@H](Cc1c[nH]c2ccccc12)C(=O)O)[C@@H](C)CC)[C@@H](C)CC)C(=O)O [BX-225] (Fumaroyl-DEEAVYFAHK([AEEA-γGlu-Lauroyl])DIIW-OH),half-life,[1],37 min
same,AUClast 0-30 min,[1],4981 ng·h/mL
same,activation at 10 µM,human ETA receptor; [2],0.52%
same,activation at 100 µM,human ETA receptor; [2],3.59%
"CC[C@H](C)[C@H](NC(=O)[C@H](CC(=O)O)NC(=O)[C@H](CC(C)C)NC(=O)[C@H](Cc1c[nH]cn1)NC(=O)[C@H](C)NC(=O)[C@H](Cc1ccccc1)NC(=O)[C@H](Cc1ccc(O)cc1)NC(=O)[C@@H](NC(=O)[C@H](C)NC(=O)[C@H](CCC(=O)O)NC(=O)[C@H](CCC(=O)O)NC(=O)[C@H](CC(=O)O)NC(=O)CCC(=O)O)C(C)C)C(=O)N[C@H](C(=O)N[C@@H](Cc1c[nH]c2ccccc12)C(=O)O)[C@@H](C)CC [IRL1620, reference compound] (Suc-DEEAVYFAHLDIIW-OH)",half-life,[1],< 2.6 min
same,AUClast 0-30 min,[1],130 ng·h/mL
Fum-DEEEVYFAHKDIIW (Fumaroyl-DEEEVYFAHKDIIW) [BX-52],"hETAR agonist activity, percentage of activity relative to ET1",human ETA receptor; @10nM,-2.49%@10nM
same,"hETAR agonist activity, percentage of activity relative to ET1",human ETA receptor; @100nM,-11.24%@100nM
Fum-DEEEVYFAHOrnDIIW [BX-59],"hETAR agonist activity, percentage of activity relative to ET1",human ETA receptor,-7.67%@100µM
same,"hETAR agonist activity, percentage of activity relative to ET1",human ETA receptor; @10µM,-10.61%@10µM
"Suc-DE cyclo(CEEC)YFAHKDIIW (Suc-DECEECYFAHKDIIW; not fully specified (bridges); printed as Suc-DE cyclo(CEEC)YFAHKDIIW; also: cyclo(CEEC) in N-terminal extension, bond type not given here) [BX-57]","hETAR agonist activity, percentage of activity relative to ET1",human ETA receptor,-10.53%@100µM
same,"hETAR agonist activity, percentage of activity relative to ET1",human ETA receptor; @10µM,-29.04%@10µM
